Reference: patent publication US20040163143A1, “Method for efficiently producing transgenic plant using auxin precursor” (NIPPON PAPER INDUSTRIES CO., LTD., priority 2002, published 2004)

Assays:
[1] = tested on: populus hybrid strain Y63 stem sections; assay: populus hybrid gene introduction test, vector pIAH6, adventitious bud redifferentiation and multiple bud observation; format: cell-based, Populus sieboldii×Populus grandidentata; conditions: for B Adventitious bud differentiated (number of sections): 10 sections tested; for B/A Redifferentiation ratio / C/A Gene introduction ratio / C/B Selection efficiency: section basis; for number of redifferentiated adventitious buds into which the desired gene was introduced / total number of adventitious buds redifferentiated: bud basis; for C GUS + adventitious bud differentiated (number of sections): sections with bud judged as a multiple bud after culturing for 4 months
Experimental: A transformant was produced by carrying out gene introduction into a populus hybrid (Populus sieboldii×Populus grandidentata) by the method of the present invention using the pIAH6 used in Example 1 as the vector. A stem of an aseptic seedling of a populus hybrid strain […] That is, the pIAH6-introduced A. tumefaciens LBA4404 obtained in the same manner as in Example 1 was cultured overnight in the YEB liquid medium and then diluted to OD630=0.5 with Y basal medium, and the stem sections prepared in the above were soaked in this cell suspension. Next, each of these sections after removing excess cell suspension was co-cultured with Agrobacterium on an agar medium (agar 8 g/l) prepared by adding 40 mg/l acetosyringone to the Y basal medium, at 25° C. for 3 days in the dark to thereby be infect with the pIAH6-introduced Agrobacterium. In this case, a modified MS medium (10 mM NH4, 30 mM NO3) was supplemented with 20 g/l sucrose and used as the Y basal medium. The sections after infection culturing were put on the Y basal agar medium (agar 8 g/l) supplemented with 500 mg/l ticarcillin and 1 μM, 5 μM or 30 μM of an auxin precursor analogue NAM, followed by culturing at 25° C. under light conditions of 30 to 40 μmol/m^2/s in light intensity. […] That is, since the ipt gene is not introduced into the escape, the adventitious bud was redifferentiated by mere influence of a desired gene-introduced cell which was present adjacent thereto.

[2] = tested on: E. globulus hypocotyl sections; assay: E. globulus gene introduction test, vector pIAH6 (ipt + iaaH + GUS), adventitious bud redifferentiation and GUS staining; format: cell-based, Eucalyptus globulus; conditions: for B Adventitious bud differentiated (number of sections): 3 months after infection; for B/A Redifferentiation ratio / C/A Gene introduction ratio / C/B Selection efficiency: section basis
Experimental: Using a plasmid pIAH6 as a vector having a GUS gene as a model of a desired gene and an ipt gene and an iaaH gene as selectable marker genes, a transformant was produced by carrying out gene introduction into Eucalyptus globulus (hereinafter referred to as “E. globulus”) by the method of the present invention. Seeds of E. globulus from Chile were sterilized by soaking in 70% ethanol for about 1 minute and then soaking with stirring in a 2% aqueous sodium hypochlorite solution for about 4 hours, washed thoroughly with sterile water, inoculated on an MS agar medium to which 0.5 mg/l zeatin had been added and stored in a refrigerator at 4° C. for 2 days to accelerate germination, and then the germination was carried out by culturing at 25° C. under light conditions of about 10 μmol/m^2/s in light intensity. One to two weeks after the inoculation of the seeds onto the germination medium, hypocotyls were collected by cutting out apical buds, cotyledons and roots of the germinated seedlings, and the hypocotyls were cut into sections of about 5 mm to be used as samples for gene introduction and subjected to the following test. A. tumefaciens EHA105 introduced with the plasmid pIAH6 in the above item I was cultured overnight in the YEB liquid medium and then diluted to OD630 =0.5 with EG basal medium, and the sections of hypocotyl prepared in the above were soaked in the cell suspension. Next, each of the sections after removing excess cell suspension was co-cultured with Agrobacterium on an agar medium (agar 8.5 g/l) prepared by adding 1.0 mg/l zeatin, 0.05 mg/l NAA and 40 mg/l acetosyringone to the EG basal medium, at 25° C. for 3 days in the dark to thereby infect each section with the pIAH6-introduced Agrobacterium. In this case, a modified MS medium having an ammonia nitrogen/nitrate nitrogen concentration ratio of 1:3 (5 mM NH4, 15 mM NO3) was supplemented with 20 g/l sucrose and used as the EG basal medium. The sections after infection culturing were put on an EG basal agar medium (agar 8.5 g/l) supplemented with 500 mg/l ticarcillin and 1 μM or 10 μM of an auxin precursor analogue NAM, and the culturing was continued at 25° C. under light conditions of 30 to 40 μmol/m^2/s in light intensity while sub-culturing at an interval of 2 weeks using the same medium. Among these sections, the quicker ones redifferentiated adventitious buds after about 2 months of the Agrobacterium infection. Three months after the Agrobacterium infection, in order to examine expression of the GUS gene used as a model of the desired gene, the redifferentiated adventitious buds were subjected to a GUS staining test in accordance with the method of Jefferson et al. (Plant Mol. Biol. Rep., 5: 387-405 (1987)), and the degree of formation of desired gene-introduced adventitious buds was judged by examining the number of stained adventitious buds (the number of adventitious buds expressing the desired gene). An E. globulus gene introduction test was carried out in the same manner as in Example 1, except that the hypocotyl sections after the Agrobacterium infection were cultured using the EG basal agar medium (agar 8.5 g/l) supplemented with 500 mg/l ticarcillin and 0 μM, 1 μM or 10 μM NAA as auxin.

[3] = tested on: stem sections of a high rooting clone of E. globulus; assay: gene introduction test on high rooting clone of E. globulus, vector pIPT10; format: cell-based, Eucalyptus globulus; conditions: same manner as Example 3 (NAM 1 μM)
Experimental: Definite buds of a high rooting clone of E. globulus from Chile were aseptically grown using a medium prepared by adding 0.5 mg/l zeatin to the Y basal medium of Example 2, and the elongated stems were cut into sections of 5 mm to be used as samples for gene introduction and infected with the plasmid pIAH6-introduced Agrobacterium in the same manner as in Example 1. The sections after infection culturing were put on an EG basal agar medium (agar 8.5 g/l) supplemented with 500 mg/l ticarcillin and 1 μM of an auxin precursor analogue NAM, and the culturing was continued at 25° C. under light conditions of 30 to 40 μmol/m^2/s in light intensity while sub-culturing at an interval of 2 weeks using the same medium. Four months after the Agrobacterium infection, the redifferentiated adventitious buds were subjected to a GUS staining test in accordance with the above method of Jefferson et al., and the degree of formation of desired gene-introduced adventitious buds was judged. Using plasmid pIPT10 as the vector, a gene introduction test was carried out into a high rooting clone of E. globulus in the same manner as in Example 3.

[4] = NAM 1 μM in medium, 60 sections tested
[5] = NAM 10 μM in medium, 48 sections tested

NC(=O)Cc1cccc2ccccc12 [NAM, naphthaleneacetic acid amide]
B Adventitious bud differentiated (number of sections) ([1]; NAM 1 μM in medium): 7 number of sections | B/A Redifferentiation ratio ([1]; NAM 1 μM in medium): 70.0% | C/A Gene introduction ratio ([1]; NAM 1 μM in medium): 50.0% | C/B Selection efficiency ([1]; NAM 1 μM in medium): 71.4% | number of redifferentiated adventitious buds into which the desired gene was introduced ([1]; NAM 1 μM): 6 | total number of adventitious buds redifferentiated ([1]; NAM 1 μM): 67 | C GUS + adventitious bud differentiated (number of sections) ([1]; NAM 1 μM): 5 number of sections | B Adventitious bud differentiated (number of sections) ([1]; NAM 5 μM in medium): 6 number of sections | B/A Redifferentiation ratio ([1]; NAM 5 μM in medium): 60.0% | C/A Gene introduction ratio ([1]; NAM 5 μM in medium): 40.0% | C/B Selection efficiency ([1]; NAM 5 μM in medium): 66.7% | number of redifferentiated adventitious buds into which the desired gene was introduced ([1]; NAM 5 μM): 5 | total number of adventitious buds redifferentiated ([1]; NAM 5 μM): 34 | C GUS + adventitious bud differentiated (number of sections) ([1]; NAM 5 μM): 4 number of sections | B Adventitious bud differentiated (number of sections) ([1]; NAM 30 μM in medium): 0 number of sections | B/A Redifferentiation ratio ([1]; NAM 30 μM in medium): 0% | C/A Gene introduction ratio ([1]; NAM 30 μM in medium): 0% | C/B Selection efficiency ([1]; NAM 30 μM in medium): 0% | C GUS + adventitious bud differentiated (number of sections) ([1]; NAM 30 μM): 0 number of sections | C GUS + adventitious bud differentiated (number of sections) [2, 4]: 8 number of sections | B Adventitious bud differentiated (number of sections) [2, 4]: 21 number of sections | B/A Redifferentiation ratio ([2]; NAM 1 μM in medium): 35.0% | C/A Gene introduction ratio ([2]; NAM 1 μM in medium): 13.3% | C/B Selection efficiency ([2]; NAM 1 μM in medium): 38.1% | C GUS + adventitious bud differentiated (number of sections) [2, 5]: 1 number of sections | B Adventitious bud differentiated (number of sections) [2, 5]: 2 number of sections | B/A Redifferentiation ratio ([2]; NAM 10 μM in medium): 4.2% | C/A Gene introduction ratio ([2]; NAM 10 μM in medium): 2.1% | C/B Selection efficiency ([2]; NAM 10 μM in medium): 50.0% | redifferentiated individuals into which the desired gene was introduced [3]: not obtained | redifferentiation of adventitious buds [3]: not redifferentiated
